According to US9879043B1, “Synthesis of non-natural cofactor analogs of S-adenosyl-L-methionine using methionine adenosyltransferase” (University of Kentucky Research Foundation, priority 2013, dated 2018):

Columns and labels:
Type in all cases: biochemical
[1] = target: human MAT II catalytic alpha and regulatory beta subunit (hMAT2) (Homo sapiens, UniProt P31153); assay: MAT assay, turnover of S/Se-Met analogs to S(Se)AM analogs (RP-HPLC end point); conditions: 2 mM Met analog, 1 mM ATP, 5 μM MAT, pH 8, 4 h, 37° C.; average of two assays
Method: (§1) Standard uniform assay conditions (2 mM Met analog, 1 mM ATP, 5 μM MAT, 25 mM Tris, 5 mM MgCl2, 50 mM KCl, pH 8, 4 h) were adopted to facilitate this broad assessment. For the thermophilic counterpart (mMAT), reactions were conducted at 65° C., while all other reactions were incubated at 37° C. Production of SAM analogs was determined by an RP-HPLC end point assay to afford complete analysis of the desired SAM analog and/or any corresponding degradation products known to directly derive from the desired SAM analog intermediate.
(§2) To monitor MAT reactions, analytical RP HPLC employed a Luna C18 column (5 μm, 4.6 mm×250 mm; Phenomenex, Torrance, Calif., USA) [gradient of 10% B to 40% B over 15 min, 40% B to 75% B over 5 min (A=10 mM NaH2PO4, 5 mM octane sulfonic acid, pH was adjusted to 3.5 using phosphoric acid; B=acetonitrile) flow rate=1 mL min^−1; A254].
(§3) The sMAT and mMAT reactions were conducted at 65° C. while hMATs and eMAT were incubated at 37° C. Reactions were quenched by adding an equal volume of methanol followed by centrifugation (10,000×g for 15 min) to remove the precipitated protein and product formation for each reaction was subsequently analyzed by RP-HPLC using Method D (FIG. 15, first column). For each reaction, percent yield was based upon the integration of species at 254 nm and calculated by dividing the integrated area of product and/or decomposed product by the sum of integrated area of product and/or decomposed product and the remaining substrate. The assays were repeated twice under identical conditions, and Table 2 (and FIG. 5) represents an average value of two assays. The inclusion of adenine and 5′-R-thio-5′-adenosine in these calculations is based upon the established SAM and ATP chemical decomposition pathways which indicate adenine and 5′-R-thio-5′-adenosine to only derive from SAM (not ATP). All putative products were subsequently confirmed by high resolution electrospray ionization (ESI) mass spectra with positive (+) and/or negative (−) mode.

[2] = target: human MAT II catalytic alpha subunit alone (hMAT2A) (Homo sapiens, UniProt P31153); assay: as above; conditions: 2 mM Met analog, 1 mM ATP, 5 μM MAT, pH 8, 4 h, 37° C.; average of two assays
Method: as §1, §2, §3

[3] = target: Escherichia coli MAT (eMAT) (Escherichia coli, UniProt P0A817); assay: as above; conditions: 2 mM Met analog, 1 mM ATP, 5 μM MAT, pH 8, 4 h, 37° C.; average of two assays
Method: as §1, with “intermediate. Putative SAM analog and SAM-derived degradative product formation was subsequently confirmed via high-resolution mass spectrometry (HRMS) analysis for all positive reactions (see Table 2).” for “intermediate.”
as §2
as §3, with “In vitro MAT reactions were conducted in a volume of 50 μl with 2 mM S/Se-alkylated analog (compounds 2-30), 1 mM ATP and 5 μM purified MAT in 25 mM Tris buffer pH 8.0, 5 mM MgCl2, 50 mM KCl for 4 h. The sMAT” for “The sMAT”

[4] = target: human MAT I catalytic subunit alpha (hMAT1A) (Homo sapiens, UniProt Q00266); assay: as above; conditions: 2 mM Met analog, 1 mM ATP, 5 μM MAT, pH 8, 4 h, 37° C.; average of two assays
Method: as §1, §2, §3

[5] = target: T1, Methanocaldococcus jannaschii MAT (mMAT) (Methanocaldococcus jannaschii, UniProt Q58605); conditions: 2 mM Met analog, 1 mM ATP, 5 μM MAT, pH 8, 4 h, 65° C.; average of two assays
T1 sequence (Q58605 1-406): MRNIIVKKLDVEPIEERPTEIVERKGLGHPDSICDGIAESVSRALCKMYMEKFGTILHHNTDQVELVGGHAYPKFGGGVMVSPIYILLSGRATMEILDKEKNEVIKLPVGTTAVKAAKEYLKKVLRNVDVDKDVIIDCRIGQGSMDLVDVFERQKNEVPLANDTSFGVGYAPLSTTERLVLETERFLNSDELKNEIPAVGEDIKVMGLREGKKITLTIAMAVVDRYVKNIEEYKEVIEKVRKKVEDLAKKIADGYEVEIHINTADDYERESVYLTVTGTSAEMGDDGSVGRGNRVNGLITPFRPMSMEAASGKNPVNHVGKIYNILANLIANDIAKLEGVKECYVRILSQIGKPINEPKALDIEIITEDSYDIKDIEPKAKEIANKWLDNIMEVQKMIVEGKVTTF
Method: as §1, §2, §3

[6] = target: T2, Sulfolobus solfataricus MAT (sMAT) (Saccharolobus solfataricus, UniProt Q980S9); conditions: 2 mM analog, 1 mM ATP, 5 μM sMAT, pH 8.0, 4 h at 65° C.; average of two assays
T2 sequence (Q980S9 1-404): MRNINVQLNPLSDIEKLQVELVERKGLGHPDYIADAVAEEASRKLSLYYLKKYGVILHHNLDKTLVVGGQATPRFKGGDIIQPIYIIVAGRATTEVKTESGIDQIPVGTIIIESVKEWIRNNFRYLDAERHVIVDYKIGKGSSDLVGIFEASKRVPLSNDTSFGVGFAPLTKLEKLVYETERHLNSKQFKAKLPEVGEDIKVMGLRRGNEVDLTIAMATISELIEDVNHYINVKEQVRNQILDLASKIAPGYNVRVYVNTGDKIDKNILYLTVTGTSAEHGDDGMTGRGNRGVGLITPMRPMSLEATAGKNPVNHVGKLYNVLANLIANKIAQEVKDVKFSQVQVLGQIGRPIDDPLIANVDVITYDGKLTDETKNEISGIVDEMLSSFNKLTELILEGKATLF
Method: In-vitro sMAT assay: In vitro sMAT reactions were conducted in a volume of 50 μl with 2 mM S/Se-alkylated analog, 1 mM ATP and 5 μM purified sMAT in 25 mM Tris buffer pH 8.0, 5 mM MgCl2, 50 mM KCl for 4 h at 65° C. Reactions were quenched by adding an equal volume of methanol followed by centrifugation (10,000×g for 15 min) to remove the precipitated protein and product formation for each reaction was subsequently analyzed by reverse phase HPLC (RP-HPLC) using method described below. For each reaction, percent yield was based upon the integration of species at 254 nm and calculated by dividing the integrated area of product and/or decomposed product by the sum of integrated area of product and/or decomposed product and the remaining substrate. The assays were repeated twice under identical conditions, and Table 4 (and FIG. 17) represents an average value of two assays. The inclusion of adenine and 5′-R-thio-5′-adenosine in these calculations is based upon the established SAM and ATP chemical decomposition pathways which indicate adenine and 5′-R-thio-5′-adenosine to only derive from SAM (not ATP). All putative products were subsequently confirmed by high resolution electrospray ionization (ESI) mass spectra with positive (+) and/or negative (−) mode.
RP-HPLC method: Reactions were quenched by the addition of equal volume of methanol followed by centrifugation at 10,000 g for 15 min to remove precipitated protein before applying on an analytical Varian ProStar HPLC [Luna C18 column, 5 μm, 4.6 mm×250 mm; Phenomenex, Torrance, Calif., USA; gradient of 10% B to 40% B over 15 min, 40% B to 75% B over 5 min (A=10 mM NaH2PO4, 5 mM octane sulfonic acid, pH was adjusted to 3.5 using phosphoric acid; B=acetonitrile) flow rate=1 mL min^−1; A254].

| Structure (SMILES) | Percentage Turn-over hMAT2 [1] [%] | Percentage Turn-over hMAT2A [2] [%] | Percentage Turn-over eMAT [3] [%] | Percentage Turn-over hMAT1A [4] [%] | Percentage Turn-over mMAT [5] [%] | Percentage Turn-Over (sMAT) [6] [%] |
| --- | --- | --- | --- | --- | --- | --- |
| C[Se]CC[C@H](N)C(=O)O [2-Se, L-selenomethionine, reference compound] | 100 | 100 |  |  |  |  |
| CSCC[C@H](N)C(=O)O [compound 2, L-methionine] | 100 | 100 |  |  |  |  |
| CC[Se]CC[C@H](N)C(=O)O [compound 3-Se, (2S)-2-amino-4-(ethylselanyl)butanoic acid] | 82 | 53 |  |  |  |  |
| C#CCSCC[C@H](N)C(=O)O [compound 4, (2S)-2-amino-4-(prop-2-yn-1-ylsulfanyl)butanoic acid] | 20 | 6 | 2 | 2 | 6 | 36 |
| C#CC[Se]CC[C@H](N)C(=O)O [compound 4-Se, (2S)-2-amino-4-(prop-2-yn-1-ylselanyl)butanoic acid] | 58 | 44 |  |  |  |  |
| N#CCSCC[C@H](N)C(=O)O [compound 6, (2S)-2-amino-4-[(cyanomethyl)sulfanyl]butanoic acid] | 20 | 13 | 2 | 2 | 6 | 68 |
| N#CC[Se]CC[C@H](N)C(=O)O [compound 6-Se, (2S)-2-amino-4-[(cyanomethyl)selanyl]butanoic acid] | 33 | 23 |  |  |  |  |
| C=CCSCC[C@H](N)C(=O)O [compound 7, (2S)-2-amino-4-(prop-2-en-1-ylsulfanyl)butanoic acid] | 52 | 50 | 2 | 5 | 16 | 27 |
| C=CC[Se]CC[C@H](N)C(=O)O [compound 7-Se, (2S)-2-amino-4-(prop-2-en-1-ylselanyl)butanoic acid] | 59 | 42 |  |  |  |  |
| CCC[Se]CC[C@H](N)C(=O)O [compound 8-Se, (2S)-2-amino-4-(propylselanyl)butanoic acid] | 74 | 24 |  |  |  |  |
| CC(C)[Se]CC[C@H](N)C(=O)O [compound 9-Se, (2S)-2-amino-4-(propan-2-ylselanyl)butanoic acid] | 10 | 11 |  |  |  |  |
| C#CCC[Se]CC[C@H](N)C(=O)O [compound 10-Se, (2S)-2-amino-4-(but-3-yn-1-ylselanyl)butanoic acid] | 55 | 22 |  |  |  |  |
| C=C(C)C[Se]CC[C@H](N)C(=O)O [compound 12-Se, (2S)-2-amino-4-[(2-methylprop-2-en-1-yl)selanyl]butanoic acid] | 12 | 11 |  |  |  |  |
| CCCC[Se]CC[C@H](N)C(=O)O [compound 13-Se, (2S)-2-amino-4-(butylselanyl)butanoic acid] | 49 | 26 |  |  |  |  |
| CC(C)=CC[Se]CC[C@H](N)C(=O)O [compound 19-Se, (2S)-2-amino-4-[(3-methylbut-2-en-1-yl)selanyl]butanoic acid] | 15 | 9 |  |  |  |  |
| [N-]=[N+]=NC/C=C/C[Se]CC[C@H](N)C(=O)O [compound 23-Se, (2S)-2-amino-4-{[(2E)-4-azidobut-2-en-1-yl]selanyl}butanoic acid] | 15 | 9 |  |  |  |  |
| NC/C=C/C[Se]CC[C@H](N)C(=O)O [compound 24-Se, (2S)-2-amino-4-{[(2E)-4-aminobut-2-en-1-yl]selanyl}butanoic acid] | 25 | 16 |  |  |  |  |
